Test results from ChEMBL document CHEMBL1201862, “PubChem BioAssay data set” (2004).
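Growth conditions: 96-well plates. Treatment: test compound, 48 hours, 5 concentrations. Analysis: linear interpolation between bracketing concentrations; unreached endpoints set to highest concentration. The concentration for 50% growth inhibition is given as GI50.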 Active and inactive are the calls of the source. Rule as the data show it: active = GI50 up to about 1.1 µM and inactive = higher.

Legend:
Test in all cases: NCI-60 cell line screen, 48 h
DLD-1 = tested on: DLD-1
DMS-114 = tested on: DMS-114
DMS-273 = tested on: DMS-273
KM-20L2 = tested on: KM-20L2
LXFL 529 = tested on: LXFL 529
M19-MEL = tested on: M19-MEL
XF498 = tested on: XF498
HOP-18 = tested on: HOP-18
RXF 631 = tested on: RXF 631

Measured: GI50

N=c1oc2c(O)c(O)ccc2cc1C(N)=O
inactive: DLD-1 > 100 µM | DMS-114 35.4 µM | DMS-273 > 100 µM | KM-20L2 > 100 µM | LXFL 529 31.6 µM | M19-MEL 21.3 µM | XF498 25.2 µM

COc1cc2c3c(c1OC)C(=O)C=C3N(S(=O)(=O)c1ccc(C)cc1)CC2
inactive: DLD-1 > 100 µM | DMS-114 > 100 µM | DMS-273 > 100 µM | HOP-18 > 100 µM | KM-20L2 > 100 µM | LXFL 529 > 100 µM | M19-MEL > 100 µM | XF498 72.9 µM

Cc1ccc(NC(=O)CCc2nnc(N)o2)cc1
inactive: DLD-1 > 100 µM | DMS-114 > 100 µM | DMS-273 > 100 µM | KM-20L2 > 100 µM | LXFL 529 > 100 µM | M19-MEL > 100 µM | RXF 631 > 31.6 µM | XF498 > 100 µM

CN1C(=O)c2cccc3c([N+](=O)[O-])ccc(c23)C1=O
inactive: DLD-1 2.82 µM | DMS-114 4.1 µM | DMS-273 4.23 µM | HOP-18 17.1 µM | KM-20L2 5.7 µM | LXFL 529 1.46 µM | M19-MEL 10.4 µM | RXF 631 2.58 µM

Cc1ccc(S(=O)(=O)ON/N=C2/C3OC3[C@@H]3CCCC[C@H]23)cc1 (some centres not stated)
inactive: DLD-1 > 100 µM | DMS-273 > 100 µM | HOP-18 > 100 µM | KM-20L2 > 100 µM | LXFL 529 > 100 µM | M19-MEL > 100 µM | XF498 > 100 µM

C#CCSc1nc(N)c2ncn(C3OC(COP(=O)(O)O)C(O)C3O)c2n1 (configuration not stated)
inactive: DLD-1 > 239 µM | DMS-273 > 239 µM | HOP-18 > 239 µM | KM-20L2 > 239 µM | M19-MEL > 239 µM | XF498 > 239 µM

Nc1ccc(C2=Nc3ccccc3SC(c3ccccc3O)C2)cc1 (configuration not stated)
inactive: DLD-1 34.1 µM | DMS-114 15.7 µM | DMS-273 54.5 µM | HOP-18 > 100 µM | KM-20L2 > 100 µM | LXFL 529 22 µM | M19-MEL 50 µM | RXF 631 68.2 µM | XF498 16.3 µM

CCOC(=O)C1=C(O)C(=O)c2cc(OC)ccc2C1=O
inactive: DLD-1 > 100 µM | DMS-114 > 100 µM | DMS-273 > 100 µM | HOP-18 4.51 µM | KM-20L2 > 100 µM | M19-MEL 20.7 µM

Nc1ncnc2c1ncn2C1OC(CSC(F)F)C(O)C1O (configuration not stated)
inactive: DLD-1 > 100 µM | DMS-114 > 100 µM | DMS-273 > 100 µM | HOP-18 > 100 µM | KM-20L2 > 100 µM | LXFL 529 > 100 µM | RXF 631 > 100 µM

CCOC(=O)C1C(=O)C(=O)N2CCc3c([nH]c4ccccc34)C12 (configuration not stated)
inactive: DLD-1 > 100 µM | DMS-114 > 100 µM | KM-20L2 > 100 µM | LXFL 529 > 100 µM | M19-MEL > 100 µM

CCOC(=O)NC(=O)c1cn(CCN2CCNCC2)c(=O)[nH]c1=O
inactive: DLD-1 > 100 µM | DMS-114 > 100 µM | HOP-18 > 100 µM | LXFL 529 > 100 µM | M19-MEL > 100 µM | XF498 > 100 µM

O=S1(=O)CS(=O)(=O)OCCCCCO1
inactive: DLD-1 > 100 µM | DMS-114 > 100 µM | DMS-273 > 100 µM | HOP-18 > 100 µM | KM-20L2 > 100 µM | LXFL 529 > 100 µM | M19-MEL > 100 µM | RXF 631 > 100 µM

C[N+]1(C)C/C(=C\c2ccc(O)cc2)C(=O)/C(=C/c2ccc(O)cc2)C1
inactive: DLD-1 49.7 µM | DMS-114 21.4 µM | DMS-273 53 µM | HOP-18 > 100 µM | KM-20L2 61.4 µM | LXFL 529 60.5 µM | M19-MEL > 100 µM

C=C(CN(C)C)C(=O)c1ccc(C)cc1C
inactive: DLD-1 3.88 µM | DMS-114 21.6 µM | DMS-273 18.2 µM | HOP-18 16 µM | KM-20L2 19.9 µM | LXFL 529 12.5 µM | M19-MEL 18.7 µM | RXF 631 20.4 µM | XF498 12 µM

COc1ccc(CNc2cnc3cc(N)ccc3n2)cc1OC
inactive: DLD-1 > 100 µM | DMS-114 > 100 µM | DMS-273 > 100 µM | M19-MEL > 100 µM

Cc1cn(C2CC(CCCO)C(CO)O2)c(=O)[nH]c1=O (configuration not stated)
inactive: DLD-1 > 100 µM | DMS-114 > 100 µM | DMS-273 > 100 µM | KM-20L2 > 100 µM | LXFL 529 > 100 µM | M19-MEL > 100 µM | XF498 > 100 µM

Cc1c(C(=O)c2ccccc2C(=O)O)c2ccccc2n1C
inactive: DLD-1 > 100 µM | DMS-114 > 100 µM | DMS-273 > 100 µM | KM-20L2 > 100 µM | LXFL 529 > 100 µM | M19-MEL > 100 µM | XF498 > 100 µM

CC(C)(C)C#COC(=O)c1ccccc1
inactive: DLD-1 > 100 µM | DMS-114 > 100 µM | KM-20L2 > 100 µM | LXFL 529 > 100 µM | M19-MEL > 100 µM

Cc1ccc(/C=C(\C#N)c2ccccc2)cc1
inactive: DLD-1 > 100 µM | DMS-114 > 100 µM | DMS-273 > 100 µM | HOP-18 > 100 µM | KM-20L2 > 100 µM | LXFL 529 > 100 µM | M19-MEL > 100 µM

CCOC(=O)[C@H]1Nc2ccc(Cl)cc2[C@H]2CCC[C@@H]12
inactive: DLD-1 > 100 µM | DMS-114 95.3 µM | DMS-273 > 100 µM | HOP-18 53.2 µM | KM-20L2 > 100 µM | LXFL 529 > 100 µM | M19-MEL > 100 µM | XF498 > 100 µM

Cc1cc(C)nc(NS(=O)(=O)c2ccc(Nc3c4ccccc4nc4c(C(=O)N5CCN(CCO)CC5)cccc34)cc2)n1
inactive: DLD-1 > 100 µM | DMS-114 > 100 µM | DMS-273 > 100 µM | HOP-18 > 100 µM | KM-20L2 > 100 µM | LXFL 529 > 100 µM | M19-MEL > 100 µM | XF498 > 100 µM

CC(C)N(C(=O)C12C3C4C1C1C4(C#N)C3C12C(=O)O)C(C)C (configuration not stated)
inactive: DLD-1 > 100 µM | DMS-114 > 100 µM | DMS-273 > 100 µM | HOP-18 > 100 µM | KM-20L2 > 100 µM | LXFL 529 > 100 µM | M19-MEL > 100 µM | RXF 631 > 100 µM | XF498 > 100 µM

CN(C)CC/C(=N\Nc1c(F)c(F)c(F)c(F)c1F)c1ccccc1
inactive: DLD-1 8.63 µM | DMS-114 25.5 µM | DMS-273 29.2 µM | HOP-18 23.6 µM | KM-20L2 35.6 µM | LXFL 529 42.3 µM | M19-MEL 70.1 µM

OC1CC(O)O[C@H](c2ccccc2)C1 (some centres not stated)
inactive: DLD-1 > 100 µM | DMS-273 > 100 µM | HOP-18 > 100 µM | KM-20L2 > 100 µM | LXFL 529 > 100 µM | M19-MEL > 100 µM

C[C@H]1[C@H](C)CC[C@]2(C(=O)O)CCC3(COC(=O)/C=C/c4ccc(O)cc4)C(=CCC4[C@@]5(C)CC[C@H](O)C(C)(C)C5CC[C@]43C)[C@H]12 (some centres not stated)
inactive: DLD-1 3.39 µM | DMS-114 3.72 µM | DMS-273 4.76 µM | HOP-18 18.3 µM | KM-20L2 4.83 µM | LXFL 529 3.83 µM | M19-MEL 22.3 µM | RXF 631 7.55 µM

CC(=O)OC1C[C@H]2C(OC(=O)c3ccccc3)C3C4(OC(C)=O)COC4C[C@H](OC(C)=O)[C@@]3(C)C(OC(C)=O)[C@H](OC(C)=O)C(=C1C)C2(C)C (some centres not stated)
inactive: DLD-1 32.7 µM | DMS-114 22.2 µM | DMS-273 24.9 µM | HOP-18 20.1 µM | KM-20L2 59 µM | LXFL 529 22.3 µM | M19-MEL 57.9 µM | XF498 19.8 µM

C/C(=N\NC(=S)N1CCCCCC1)c1ccccn1
active: DLD-1 < 0.001 µM | DMS-114 < 0.001 µM | DMS-273 < 0.001 µM | HOP-18 0.123 µM | KM-20L2 < 0.001 µM | LXFL 529 < 0.001 µM | M19-MEL 0.0883 µM | RXF 631 0.0386 µM | XF498 0.0014 µM

Cc1c2cc[n+](C)cc2c(C)c2c1[nH]c1ccc(Oc3ccccc3)cc12
active: DLD-1 0.906 µM | DMS-273 0.596 µM | LXFL 529 0.282 µM
inactive: KM-20L2 1.14 µM

c1ccc2nc(-c3ccc4c(c3)OCO4)ccc2c1
inactive: DMS-114 23.4 µM | DMS-273 26.2 µM | KM-20L2 39.6 µM | LXFL 529 22.5 µM
